Reference: ChEMBL document CHEMBL1149499, “Synthesis and agonist activity of cyclic ADP-ribose analogues with substitution of the northern ribose by ether or alkane chains” (J Med Chem, 2006)
Active and inactive are the calls of the source. The calls are words filed in the database; no cut-off is given here.

Key:
Assay type in all cases: functional, cell-based
Details in all cases: Homo sapiens
Jurkat [1] = experiment: Agonist activity against cADPR/RyR assessed as induction of calcium influx in intact jurkat T cells at 500 uM
Jurkat [2] = experiment: Induction of calcium flux in single jurkat T cell by confocal calcium imaging experiment at 500 uM
Jurkat [3] = experiment: Antagonist activity against cADPR/RyR assessed as inhibition of anti CD3-stimulated calcium influx in intact jurkat T cells at 500 uM

Compound | Activity (Jurkat [1]) | Activity (Jurkat [2]) | Activity (Jurkat [3])
N=c1c2ncn3c2ncn1CCOCCOP(=O)(O)OP(=O)(O)OC[C@H]1O[C@@H]3[C@H](O)[C@@H]1O | Active | Active | inactive
N=c1c2ncn3c2ncn1CCCCCOP(=O)(O)OP(=O)(O)OC[C@H]1O[C@@H]3[C@H](O)[C@@H]1O | Active | – | inactive
N=c1c2ncn3c2ncn1CCCCOP(=O)(O)OP(=O)(O)OC[C@H]1O[C@@H]3[C@H](O)[C@@H]1O | Active | – | inactive
